Experimental data as given in article PMC9434606 (RSC Advances, 2022).

Each compound was assayed against T1, pancreatic lipase (Sus scrofa, UniProt P00591) (assay: pancreatic lipase inhibition assay).
T1 sequence (P00591 1-450): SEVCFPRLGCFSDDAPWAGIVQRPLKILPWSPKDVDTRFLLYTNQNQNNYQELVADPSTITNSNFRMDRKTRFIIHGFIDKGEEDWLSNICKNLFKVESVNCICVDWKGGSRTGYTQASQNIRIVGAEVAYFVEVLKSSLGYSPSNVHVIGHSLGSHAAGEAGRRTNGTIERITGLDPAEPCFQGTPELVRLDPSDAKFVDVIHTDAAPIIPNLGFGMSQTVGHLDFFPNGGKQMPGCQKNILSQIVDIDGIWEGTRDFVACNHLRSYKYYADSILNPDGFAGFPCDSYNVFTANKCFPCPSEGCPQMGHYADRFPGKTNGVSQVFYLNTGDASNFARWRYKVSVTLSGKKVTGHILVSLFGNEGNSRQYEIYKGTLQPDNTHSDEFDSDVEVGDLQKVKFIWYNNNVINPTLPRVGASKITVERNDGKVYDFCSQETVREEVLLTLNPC
Assay type: biochemical
With `COc1cc(O)c(C(=O)O)c(-c2cc(O)c(O)cc2C)c1` [Compound 4, altenusin] the IC50 was 21.5 ± 0.97 µM.
With `COc1cc(O)c2c(c1)C1(OC2=O)C(C)=CC(=O)C1O` (stereo not drawn) [Compound 1, talaroflavone] the IC50 was 73.8 ± 0.82 µM.
`Cc1cc(O)cc2oc(=O)c3c(O)cc(O)cc3c12` [Compound 5, alternariol] showed an IC50 of 56.8 ± 0.77 µM.
